Assay results taken from patent US8916702B2 (priority 2012, dated 2014).

System: HCV pseudoparticles (genotype 1a HCV E1 and E2 envelope, H77C isolate)
Assay: microbe, parasite or virus in culture
Type: cell-based
Conditions: Hepatitis C virus, Huh-7, 48 h, HCV pseudoparticles (genotype 1a, H77C) in Huh7 cells; average of duplicate; luciferase 2 days after infection

Structure (SMILES)	EC50 [nM]
COc1cc(Nc2nc(NC3(c4ccc(Cl)cc4)CC3)nc(OCC(F)(F)F)n2)ccc1C(=O)NCC(C)(C)CNC(=O)C(N)=O [Compound 3387]	0.068
CC(C)(CNC(=O)C(N)=O)CNC(=O)c1ccc(Nc2nc(NC3(c4ccc(Cl)cc4)CC3)nc(OCC(F)(F)F)n2)cc1Cl [Compound 3477]	0.12

Same assay, conditions: Hepatitis C virus, Huh-7, 48 h, read-out: Activity (EC50 class), HCV pseudoparticle infection of Huh7 cells, luciferase 2 days after infection; EC50 expressed as class A/B

Structure (SMILES)	EC50 [nM]
Cn1cc(CCNC(=O)C(=O)NC[C@@H](NC(=O)c2ccc(Nc3nc(NC4(c5ccc(Cl)cc5)CC4)nc(OCC(F)(F)F)n3)cc2)C(=O)O)cn1 [Compound 1413]	0.01 to 10
O=C(NCCc1c[nH]cn1)C(=O)NCC[C@H](NC(=O)c1ccc(Nc2nc(NC3(c4ccc(Cl)cc4)CC3)nc(OCC(F)(F)F)n2)cc1)C(=O)O [Compound 1339]	0.01 to 10
COc1ccc(CCNC(=O)C(=O)NC[C@H](NC(=O)c2ccc(Nc3nc(NC4(c5ccc(Cl)cc5)CC4)nc(OCC(F)(F)F)n3)cc2)C(=O)O)cc1 [Compound 1399]	0.01 to 10
COC(=O)[C@H](CCNC(=O)C(=O)NCC1(C(=O)OC)CC1)NC(=O)c1ccc(Nc2nc(NC3(c4ccc(Cl)cc4)CC3)nc(OCC(F)(F)F)n2)cc1 [Compound 1375]	0.01 to 10
O=C(NCc1c(F)cccc1F)C(=O)NC[C@H](NC(=O)c1ccc(Nc2nc(NC3(c4ccc(Cl)cc4)CC3)nc(OCC(F)(F)F)n2)cc1)C(=O)O [Compound 1170]	0.01 to 10
COc1cccc(C2CC2CNC(=O)C(=O)NCC[C@H](NC(=O)c2ccc(Nc3nc(NC4(c5ccc(Cl)cc5)CC4)nc(OCC(F)(F)F)n3)cc2)C(=O)O)c1 (some centres unmarked) [Compound 1423]	0.01 to 10
O=C1CC(NC(=O)C(=O)NCC[C@H](NC(=O)c2ccc(Nc3nc(NC4(c5ccc(Cl)cc5)CC4)nc(OCC(F)(F)F)n3)cc2)C(=O)O)CCN1 (some centres unmarked) [Compound 1116]	10 to 1000
COC(=O)[C@H](CCNC(=O)C(=O)Nc1cccc(F)c1)NC(=O)c1ccc(Nc2nc(NC3(c4ccc(Cl)cc4)CC3)nc(OCC(F)(F)F)n2)cc1 [Compound 1227]	0.01 to 10
COc1ccc(CNC(=O)C(=O)NC[C@H](NC(=O)c2ccc(Nc3nc(NC4(c5ccc(Cl)cc5)CC4)nc(OCC(F)(F)F)n3)cc2)C(=O)O)cc1OC [Compound 1176]	0.01 to 10
CC(C)(CNC(=O)C(=O)Nc1cccc(F)c1)CNC(=O)c1ccc(Nc2nc(NC3(c4ccc(Cl)cc4)CC3)nc(OCC(F)(F)F)n2)cc1 [Compound 1546]	0.01 to 10
COC(=O)[C@H](CNC(=O)C(=O)NCCc1ccncc1)NC(=O)c1ccc(Nc2nc(NC3(c4ccc(Cl)cc4)CC3)nc(OCC(F)(F)F)n2)cc1 [Compound 1288]	0.01 to 10
CCOC(=O)C(=O)NC[C@H](NC(=O)c1ccc(Nc2nc(NC3(c4ccc(Cl)cc4)CC3)nc(OCC(F)(F)F)n2)cc1)C(=O)OC [Compound 1001, (S)-methyl 2-(4-(4-(1-(4-chlorophenyl)cyclopropylamino)-6-(2,2,2-trifluoroethoxy)-1,3,5-triazin-2-ylamino)benzamido)-3-(2-ethoxy-2-oxoacetamido)propanoate]	10 to 1000
CC(CNC(=O)C(=O)NC[C@H](NC(=O)c1ccc(Nc2nc(NC3(c4ccc(Cl)cc4)CC3)nc(OCC(F)(F)F)n2)cc1)C(=O)O)c1ccccc1 (some centres unmarked) [Compound 1395]	0.01 to 10
CN(C)CCNC(=O)C(=O)NC[C@@H](NC(=O)c1ccc(Nc2nc(NC3(c4ccc(Cl)cc4)CC3)nc(OCC(F)(F)F)n2)cc1)C(=O)O [Compound 1045]	0.01 to 10
COC(=O)[C@H](CCNC(=O)C(=O)NCC1CCc2ccccc21)NC(=O)c1ccc(Nc2nc(NC3(c4ccc(Cl)cc4)CC3)nc(OCC(F)(F)F)n2)cc1 (some centres unmarked) [Compound 1324]	0.01 to 10
COC(=O)[C@H](CNC(=O)C(=O)NCC(C)c1ccccc1)NC(=O)c1ccc(Nc2nc(NC3(c4ccc(Cl)cc4)CC3)nc(OCC(F)(F)F)n2)cc1 (some centres unmarked) [Compound 1283]	0.01 to 10
O=C(NCC1CCc2ccccc21)C(=O)NC[C@H](NC(=O)c1ccc(Nc2nc(NC3(c4ccc(Cl)cc4)CC3)nc(OCC(F)(F)F)n2)cc1)C(=O)O (some centres unmarked) [Compound 1414]	0.01 to 10
COC(=O)[C@H](CNC(=O)C(=O)NCCc1cnn(C)c1)NC(=O)c1ccc(Nc2nc(NC3(c4ccc(Cl)cc4)CC3)nc(OCC(F)(F)F)n2)cc1 [Compound 1302]	0.01 to 10
COC(=O)[C@H](CNC(=O)C(=O)Nc1ccccc1F)NC(=O)c1ccc(Nc2nc(NC3(c4ccc(Cl)cc4)CC3)nc(OCC(F)(F)F)n2)cc1 [Compound 1253]	0.01 to 10
O=C(NCCc1ccccn1)C(=O)NC[C@H](NC(=O)c1ccc(Nc2nc(NC3(c4ccc(Cl)cc4)CC3)nc(OCC(F)(F)F)n2)cc1)C(=O)O [Compound 1394]	0.01 to 10
COC(=O)[C@H](CCNC(=O)C(=O)Nc1ccn(C)n1)NC(=O)c1ccc(Nc2nc(NC3(c4ccc(Cl)cc4)CC3)nc(OCC(F)(F)F)n2)cc1 [Compound 1221]	0.01 to 10

Same assay, conditions: Hepatitis C virus, Huh-7, 48 h, read-out: Activity (EC50 class), HCV pseudoparticles, Huh7 cells, luciferase 2 days after infection; average of duplicates

Structure (SMILES)	EC50 [nM]
CC(C)(CNC(=O)C(=O)Nc1nc2ccc(S(N)(=O)=O)cc2s1)CNC(=O)c1ccc(Nc2nc(NC3(c4ccc(Cl)cc4)CC3)nc(OCC(F)(F)F)n2)cc1F [Compound 3678]	0.01 to 10
COc1cc2sc(NC(=O)C(=O)NCC(C)(C)CNC(=O)c3ccc(Nc4nc(NC5(c6ccc(Cl)cc6)CC5)nc(OCC(F)(F)F)n4)cc3)nc2cc1Cl [Compound 3802]	0.01 to 10
O=C(NCC[C@H](NC(=O)c1ccc(Nc2nc(NC3(c4ccc(Cl)cc4)CC3)nc(OCC(F)(F)F)n2)cc1)C(=O)O)C(=O)Nc1cccc(-n2cnnc2)c1 [Compound 3653]	0.01 to 10
Cc1ccc(NC(=O)C(=O)NCC(C)(C)CNC(=O)c2ccc(Nc3nc(NC4(c5ccc(Cl)cc5)CC4)nc(OCc4cccc(Cl)c4)n3)cc2)cc1 [Compound 3844]	0.01 to 10
COC(=O)[C@H](CNC(=O)C(=O)Nc1cccc(-c2nncn2C)c1)NC(=O)c1ccc(Nc2nc(NC3(c4ccc(Cl)cc4)CC3)nc(OCC(F)(F)F)n2)cc1 [Compound 3719]	0.01 to 10
COC(=O)[C@H](CNC(=O)C(=O)Nc1ccc(Oc2ccc(C(C)(C)C)cc2)nc1)NC(=O)c1ccc(Nc2nc(NC3(c4ccc(Cl)cc4)CC3)nc(OCC(F)(F)F)n2)cc1 [Compound 3698]	0.01 to 10

Same assay, conditions: Hepatitis C virus, Huh-7, read-out: Activity (EC50 class), HCV pseudoparticles (genotype 1a, H77C) in Huh7 cells; EC50 expressed as class A/B

Structure (SMILES)	EC50 [nM]
CC(C)(CNC(=O)C(=O)Nc1cccc2c1-c1ccccc1C2=O)CNC(=O)c1ccc(Nc2nc(NC3(c4ccc(Cl)cc4)CC3)nc(OCC(F)(F)F)n2)cc1 [Compound 3344]	0.01 to 10
COc1cc(Nc2nc(NC3(c4ccc(Cl)cc4)CC3)nc(OCC(F)(F)F)n2)ccc1C(=O)NCC(C)(C)CNC(=O)C(N)=O [Compound 3387]	0.01 to 10
COC(=O)[C@H](CNC(=O)C(=O)Nc1ccc(-c2ccccc2)cc1)NC(=O)c1ccc(Nc2nc(NC3(c4ccc(Cl)cc4)CC3)nc(OCC(F)(F)F)n2)cc1 [Compound 3083]	0.01 to 10
CC(C)(CNC(=O)C(=O)Nc1ccc(-n2cncn2)cc1)CNC(=O)c1ccc(Nc2nc(NC3(c4ccc(Cl)cc4)CC3)nc(OCC(F)(F)F)n2)cc1 [Compound 3053]	0.01 to 10
Cc1ccc(NC(=O)C(=O)N(C)CCCN(C)C(=O)c2ccc(Nc3nc(NC4(c5ccc(Cl)cc5)CC4)nc(OCC(F)(F)F)n3)cc2)cc1Cl [Compound 3434]	0.01 to 10
O=C(NC[C@H](NC(=O)c1ccc(Nc2nc(NC3(c4ccc(Cl)cc4)CC3)nc(OCC(F)(F)F)n2)cc1)C(=O)O)C(=O)Nc1ccc(CC(F)(F)F)cc1 [Compound 3297]	0.01 to 10
COC(=O)[C@H](CNC(=O)C(=O)Nc1ccc(OC2CCOCC2)cc1)NC(=O)c1ccc(Nc2nc(NC3(c4ccc(Cl)cc4)CC3)nc(OCC(F)(F)F)n2)cc1 [Compound 3208]	0.01 to 10
Cc1cccc(CNC(=O)C(=O)NCC(C)(C)CNC(=O)c2ccc(Nc3nc(NC4(c5ccc(Cl)cc5)CC4)nc(OCC(F)(F)F)n3)cc2)c1 [Compound 3042]	0.01 to 10
CC(C)(CNC(=O)c1ccc(Nc2nc(NC3(c4ccc(Cl)cc4)CC3)nc(OCC(F)(F)F)n2)cc1)NC(=O)C(N)=O [Compound 3420]	0.01 to 10
O=C(Nc1nccs1)C(=O)N1CCCC(CNC(=O)c2ccc(Nc3nc(NC4(c5ccc(Cl)cc5)CC4)nc(OCC(F)(F)F)n3)cc2)C1 (centres unmarked) [Compound 3487]	0.01 to 10
O=C(NC/C(=N/C(=O)c1ccc(Nc2nc(NC3(c4ccc(Cl)cc4)CC3)nc(OCC(F)(F)F)n2)cc1)C(=O)O)C(=O)Nc1ccc(-c2ccccc2)cc1 [Compound 3151]	0.01 to 10
CC(C)(CNC(=O)C(N)=O)CNC(=O)c1ccc(Nc2nc(NC3(c4ccc(Cl)cc4)CC3)nc(OCC(F)(F)F)n2)c(O)c1 [Compound 3478]	0.01 to 10
CN(CCCNC(=O)c1ccc(Nc2nc(NC3(c4ccc(Cl)cc4)CC3)nc(OCC(F)(F)F)n2)cc1)C(=O)C(=O)Nc1ccccc1 [Compound 3450]	0.01 to 10
CC(C)(CNC(=O)C(=O)Nc1ccc2c(c1)CCC2=O)CNC(=O)c1ccc(Nc2nc(NC3(c4ccc(Cl)cc4)CC3)nc(OCC(F)(F)F)n2)cc1 [Compound 3355]	0.01 to 10
O=C(NCCC(NC(=O)c1ccc(Nc2nc(NC3(c4ccc(Cl)cc4)CC3)nc(OCC(F)(F)F)n2)cc1)C(=O)O)C(=O)Nc1ccc(-n2ccnc2)cc1 (centres unmarked) [Compound 3521]	0.01 to 10
CC(C)(CNC(=O)C(N)=O)CNC(=O)c1ccc(Nc2nc(NC3(c4ccc(Cl)cc4)CC3)nc(OCC(F)(F)F)n2)cc1Cl [Compound 3477]	0.01 to 10
COC(=O)[C@H](CNC(=O)C(=O)Nc1ccc(-c2ccno2)cc1)NC(=O)c1ccc(Nc2nc(NC3(c4ccc(Cl)cc4)CC3)nc(OCC(F)(F)F)n2)cc1 [Compound 3199]	0.01 to 10
COC(=O)[C@H](CCNC(=O)C(=O)Nc1ccc(OCCc2ccccn2)cc1)NC(=O)c1ccc(Nc2nc(NC3(c4ccc(Cl)cc4)CC3)nc(OCC(F)(F)F)n2)cc1 [Compound 3315]	0.01 to 10
CC(C)(CNC(=O)C(=O)Nc1cccnc1-n1cccn1)CNC(=O)c1ccc(Nc2nc(NC3(c4ccc(Cl)cc4)CC3)nc(OCC(F)(F)F)n2)cc1 [Compound 3256]	0.01 to 10
O=C(Cc1ccc(F)cc1F)C(=O)NCC(O)CNC(=O)c1ccc(Nc2nc(NC3(c4ccc(Cl)cc4)CC3)nc(OCC(F)(F)F)n2)cc1 (centres unmarked) [Compound 3459]	0.01 to 10
CCN(CC)CCNC(=O)c1ccc(NC(=O)C(=O)NCC[C@H](NC(=O)c2ccc(Nc3nc(NC4(c5ccc(Cl)cc5)CC4)nc(OCC(F)(F)F)n3)cc2)C(=O)OC)cc1 [Compound 3117]	0.01 to 10
